# From ChEMBL document CHEMBL5728460, “Pyrimidine compounds and pyrimido indole compounds and methods of use” (2021)
# What was measured:
# Dihydrofolate reductase = target: T1, Dihydrofolate reductase (Homo sapiens, UniProt P00374); test: TBD: TBD
# T1 sequence (P00374 whole entry): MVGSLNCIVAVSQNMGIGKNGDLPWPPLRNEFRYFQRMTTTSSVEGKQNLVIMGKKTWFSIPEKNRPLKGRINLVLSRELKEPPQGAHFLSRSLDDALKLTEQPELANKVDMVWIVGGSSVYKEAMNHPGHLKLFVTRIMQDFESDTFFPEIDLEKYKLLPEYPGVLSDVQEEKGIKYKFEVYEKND
# [1] = TBD: TBD
# [2] = target: Epidermal growth factor receptor (Homo sapiens, UniProt P00533); test: TBD: TBD
# [3] = target: Vascular endothelial growth factor receptor 2 (Homo sapiens, UniProt P35968); test: TBD: TBD
# [4] = target: Platelet-derived growth factor receptor beta (Homo sapiens, UniProt P09619); test: TBD: TBD
# [5] = target: Vascular endothelial growth factor receptor 1 (Homo sapiens, UniProt P17948); test: TBD: TBD
# Chain of Vascular endothelial growth factor receptor 1 (P17948 whole entry): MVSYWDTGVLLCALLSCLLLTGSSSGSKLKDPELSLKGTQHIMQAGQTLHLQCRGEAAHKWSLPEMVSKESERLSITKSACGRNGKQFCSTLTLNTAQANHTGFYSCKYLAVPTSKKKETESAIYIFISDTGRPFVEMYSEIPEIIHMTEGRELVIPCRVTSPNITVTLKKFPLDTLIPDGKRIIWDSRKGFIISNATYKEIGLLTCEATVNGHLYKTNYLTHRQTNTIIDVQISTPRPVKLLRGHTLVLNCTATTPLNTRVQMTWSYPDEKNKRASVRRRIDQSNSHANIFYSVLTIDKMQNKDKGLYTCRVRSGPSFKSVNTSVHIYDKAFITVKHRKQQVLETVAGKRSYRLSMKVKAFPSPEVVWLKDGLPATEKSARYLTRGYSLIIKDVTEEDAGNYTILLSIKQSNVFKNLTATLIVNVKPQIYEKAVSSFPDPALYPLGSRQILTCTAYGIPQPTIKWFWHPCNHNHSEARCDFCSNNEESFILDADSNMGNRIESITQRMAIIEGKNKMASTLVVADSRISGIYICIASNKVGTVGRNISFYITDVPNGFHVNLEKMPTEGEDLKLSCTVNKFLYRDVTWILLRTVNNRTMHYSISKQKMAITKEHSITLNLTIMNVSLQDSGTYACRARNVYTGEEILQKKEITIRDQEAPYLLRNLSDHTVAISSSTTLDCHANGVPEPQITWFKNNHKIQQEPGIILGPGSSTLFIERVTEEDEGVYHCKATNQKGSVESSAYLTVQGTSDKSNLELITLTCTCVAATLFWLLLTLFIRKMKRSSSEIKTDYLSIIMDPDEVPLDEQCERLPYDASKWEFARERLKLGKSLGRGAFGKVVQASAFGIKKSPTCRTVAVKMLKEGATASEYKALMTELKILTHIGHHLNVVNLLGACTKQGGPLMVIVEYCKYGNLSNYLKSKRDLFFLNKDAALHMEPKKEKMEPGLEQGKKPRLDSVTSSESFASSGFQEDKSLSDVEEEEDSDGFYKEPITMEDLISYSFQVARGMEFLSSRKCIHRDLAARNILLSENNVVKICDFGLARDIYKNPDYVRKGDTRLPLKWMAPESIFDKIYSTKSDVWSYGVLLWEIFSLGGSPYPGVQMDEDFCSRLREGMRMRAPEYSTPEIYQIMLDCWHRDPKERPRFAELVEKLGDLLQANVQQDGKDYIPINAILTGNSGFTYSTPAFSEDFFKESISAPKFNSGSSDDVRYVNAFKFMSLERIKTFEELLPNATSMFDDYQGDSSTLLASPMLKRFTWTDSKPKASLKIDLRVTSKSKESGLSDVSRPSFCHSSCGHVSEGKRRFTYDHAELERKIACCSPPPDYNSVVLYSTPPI
# Chain of Epidermal growth factor receptor (P00533 whole entry): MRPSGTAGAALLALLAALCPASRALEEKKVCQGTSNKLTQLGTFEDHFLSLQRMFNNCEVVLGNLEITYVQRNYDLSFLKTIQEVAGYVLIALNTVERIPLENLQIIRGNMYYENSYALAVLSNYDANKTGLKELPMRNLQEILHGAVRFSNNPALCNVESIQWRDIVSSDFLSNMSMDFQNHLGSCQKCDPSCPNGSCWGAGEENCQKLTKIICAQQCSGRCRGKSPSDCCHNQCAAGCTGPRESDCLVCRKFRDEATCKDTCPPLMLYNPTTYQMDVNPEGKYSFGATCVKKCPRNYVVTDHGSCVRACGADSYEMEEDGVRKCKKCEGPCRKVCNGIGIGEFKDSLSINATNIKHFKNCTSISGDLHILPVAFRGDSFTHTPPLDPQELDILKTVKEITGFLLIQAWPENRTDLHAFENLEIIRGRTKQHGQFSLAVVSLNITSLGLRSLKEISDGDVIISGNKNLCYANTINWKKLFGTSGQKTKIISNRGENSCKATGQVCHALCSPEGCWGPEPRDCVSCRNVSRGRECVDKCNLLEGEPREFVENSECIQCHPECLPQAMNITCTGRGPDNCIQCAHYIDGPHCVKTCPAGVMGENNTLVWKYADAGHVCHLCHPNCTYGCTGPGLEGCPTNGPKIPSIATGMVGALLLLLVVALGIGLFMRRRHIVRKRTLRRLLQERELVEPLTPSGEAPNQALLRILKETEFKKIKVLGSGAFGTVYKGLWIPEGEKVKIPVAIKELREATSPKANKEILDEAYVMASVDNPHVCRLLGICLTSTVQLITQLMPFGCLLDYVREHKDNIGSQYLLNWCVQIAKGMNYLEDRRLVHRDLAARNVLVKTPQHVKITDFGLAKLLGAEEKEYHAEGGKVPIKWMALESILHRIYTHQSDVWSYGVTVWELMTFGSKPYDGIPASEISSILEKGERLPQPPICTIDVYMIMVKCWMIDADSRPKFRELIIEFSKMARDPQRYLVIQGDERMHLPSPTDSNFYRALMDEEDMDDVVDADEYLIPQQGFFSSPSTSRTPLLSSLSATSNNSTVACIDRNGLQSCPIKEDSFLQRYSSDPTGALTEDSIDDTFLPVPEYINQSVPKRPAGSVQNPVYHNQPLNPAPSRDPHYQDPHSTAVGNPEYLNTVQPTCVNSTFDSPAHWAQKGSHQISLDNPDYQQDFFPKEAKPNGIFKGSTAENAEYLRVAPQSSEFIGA
# Chain of Vascular endothelial growth factor receptor 2 (P35968 whole entry): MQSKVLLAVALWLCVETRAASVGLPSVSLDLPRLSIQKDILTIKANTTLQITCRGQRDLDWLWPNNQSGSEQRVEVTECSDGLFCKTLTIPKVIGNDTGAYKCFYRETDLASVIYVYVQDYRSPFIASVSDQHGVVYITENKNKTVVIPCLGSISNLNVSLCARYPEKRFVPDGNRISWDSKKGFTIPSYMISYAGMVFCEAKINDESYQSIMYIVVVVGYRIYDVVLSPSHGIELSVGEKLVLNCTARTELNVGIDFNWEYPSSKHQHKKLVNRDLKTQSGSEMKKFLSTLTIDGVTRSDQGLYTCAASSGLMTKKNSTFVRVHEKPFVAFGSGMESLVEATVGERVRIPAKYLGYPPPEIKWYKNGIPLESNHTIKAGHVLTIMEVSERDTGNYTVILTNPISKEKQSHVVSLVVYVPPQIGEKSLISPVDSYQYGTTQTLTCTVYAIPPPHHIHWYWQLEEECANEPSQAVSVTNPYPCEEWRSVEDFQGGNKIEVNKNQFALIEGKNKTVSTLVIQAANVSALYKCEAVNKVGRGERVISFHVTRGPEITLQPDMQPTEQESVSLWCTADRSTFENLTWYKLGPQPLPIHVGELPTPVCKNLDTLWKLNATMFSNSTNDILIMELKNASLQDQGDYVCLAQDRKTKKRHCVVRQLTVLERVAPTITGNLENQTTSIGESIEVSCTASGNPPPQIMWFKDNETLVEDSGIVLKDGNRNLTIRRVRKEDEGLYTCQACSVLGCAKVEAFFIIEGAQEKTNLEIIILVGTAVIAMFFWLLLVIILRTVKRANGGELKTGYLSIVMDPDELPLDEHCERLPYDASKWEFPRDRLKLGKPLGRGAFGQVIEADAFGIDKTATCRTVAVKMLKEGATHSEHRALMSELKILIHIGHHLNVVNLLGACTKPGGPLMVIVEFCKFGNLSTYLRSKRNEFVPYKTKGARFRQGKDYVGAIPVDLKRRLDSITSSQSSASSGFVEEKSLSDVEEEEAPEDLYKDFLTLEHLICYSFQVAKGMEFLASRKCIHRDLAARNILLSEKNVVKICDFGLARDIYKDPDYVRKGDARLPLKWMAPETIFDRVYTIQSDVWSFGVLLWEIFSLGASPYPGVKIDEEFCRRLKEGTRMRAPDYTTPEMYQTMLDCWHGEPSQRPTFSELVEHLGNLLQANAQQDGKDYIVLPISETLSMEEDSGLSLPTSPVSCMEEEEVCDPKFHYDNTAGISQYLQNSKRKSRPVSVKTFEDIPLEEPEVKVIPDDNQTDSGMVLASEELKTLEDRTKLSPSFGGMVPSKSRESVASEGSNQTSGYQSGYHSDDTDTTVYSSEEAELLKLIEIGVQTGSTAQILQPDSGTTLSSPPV
# Chain of Platelet-derived growth factor receptor beta (P09619 whole entry): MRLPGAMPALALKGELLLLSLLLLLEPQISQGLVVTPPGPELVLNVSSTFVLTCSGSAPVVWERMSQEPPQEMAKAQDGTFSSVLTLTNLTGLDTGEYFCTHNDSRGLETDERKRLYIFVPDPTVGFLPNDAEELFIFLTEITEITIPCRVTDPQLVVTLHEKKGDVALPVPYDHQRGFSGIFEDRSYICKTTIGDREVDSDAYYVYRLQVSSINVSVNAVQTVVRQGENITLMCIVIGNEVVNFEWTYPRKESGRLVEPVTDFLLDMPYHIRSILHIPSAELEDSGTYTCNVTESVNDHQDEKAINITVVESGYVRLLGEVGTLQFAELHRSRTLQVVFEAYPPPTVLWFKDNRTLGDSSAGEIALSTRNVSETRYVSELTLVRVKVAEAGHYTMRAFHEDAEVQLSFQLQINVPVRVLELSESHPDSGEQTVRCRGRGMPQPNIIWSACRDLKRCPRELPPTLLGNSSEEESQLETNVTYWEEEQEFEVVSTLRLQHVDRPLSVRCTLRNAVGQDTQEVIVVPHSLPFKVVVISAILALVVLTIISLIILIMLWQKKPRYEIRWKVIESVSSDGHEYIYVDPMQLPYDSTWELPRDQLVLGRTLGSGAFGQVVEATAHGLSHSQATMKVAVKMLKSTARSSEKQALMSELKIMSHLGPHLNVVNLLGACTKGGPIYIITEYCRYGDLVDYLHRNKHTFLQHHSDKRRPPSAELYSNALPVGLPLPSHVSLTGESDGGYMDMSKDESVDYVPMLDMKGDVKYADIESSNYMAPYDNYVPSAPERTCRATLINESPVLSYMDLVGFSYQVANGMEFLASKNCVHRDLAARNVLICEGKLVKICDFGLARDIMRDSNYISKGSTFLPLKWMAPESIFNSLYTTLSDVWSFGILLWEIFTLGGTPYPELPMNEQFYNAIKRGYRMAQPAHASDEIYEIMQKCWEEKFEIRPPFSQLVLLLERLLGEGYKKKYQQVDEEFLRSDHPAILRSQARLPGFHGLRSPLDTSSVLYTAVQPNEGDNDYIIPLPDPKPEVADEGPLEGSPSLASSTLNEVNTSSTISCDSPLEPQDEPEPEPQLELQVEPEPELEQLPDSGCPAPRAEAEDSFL
SMILES,IC50 (Dihydrofolate reductase) [µM],IC50 [1] [µM],IC50 [2] [µM],also measured
COc1ccc(Sc2sc3nc(N)nc(N)c3c2C)cc1,1.41,,,
COc1cc(C[C@H]2NCCc3cc(O)c(O)cc32)cc(OC)c1OC,,0.0021,,
COc1ccc(Sc2c(C)c3c(N)nc(N)nc3n2C)cc1OC,1.1,,,
COc1ccc(Sc2sc3nc(N)nc(N)c3c2C)cc1OC,0.91,3.9,15.1,
COc1ccccc1Sc1sc2nc(N)nc(N)c2c1C,,,10.4,IC50 [3]: 56.3 µM; IC50 [4]: 40.3 µM; IC50 [5]: 160 µM
